Results reported in publication PMC6274180, “Investigating Glycol-Split-Heparin-Derived Inhibitors of Heparanase: A Study of Synthetic Trisaccharides” (Molecules, 2016).

Target: T1, heparanase (Homo sapiens, UniProt Q9Y251)
T1 construct: gene HPSE
T1 sequence (Q9Y251 36-109): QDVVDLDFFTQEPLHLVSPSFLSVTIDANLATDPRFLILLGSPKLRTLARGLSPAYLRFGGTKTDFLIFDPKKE
T1 sequence (Q9Y251 158-543): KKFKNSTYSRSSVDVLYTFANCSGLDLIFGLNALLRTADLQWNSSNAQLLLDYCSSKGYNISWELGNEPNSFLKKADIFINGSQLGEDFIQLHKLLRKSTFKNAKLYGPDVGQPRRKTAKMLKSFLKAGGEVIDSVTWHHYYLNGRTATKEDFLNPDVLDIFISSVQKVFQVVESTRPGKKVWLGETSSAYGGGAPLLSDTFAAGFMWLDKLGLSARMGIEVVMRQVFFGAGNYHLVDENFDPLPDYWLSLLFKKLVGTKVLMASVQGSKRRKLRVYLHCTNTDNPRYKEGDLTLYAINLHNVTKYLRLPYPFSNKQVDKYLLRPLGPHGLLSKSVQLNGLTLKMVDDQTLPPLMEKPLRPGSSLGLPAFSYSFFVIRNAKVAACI
Assay: in vitro colorimetric (WST-1) heparanase inhibition assay with fondaparinux as substrate
Format: biochemical

Compound	IC50
CO[C@H]1[C@H](O)[C@@H](NS(=O)(=O)O)[C@@H](O[C@@H](CO)[C@H](O[C@H](CO)O[C@H]2[C@H](O)[C@@H](NS(=O)(=O)O)[C@@H]3OC[C@H]2O3)C(=O)O)O[C@@H]1COS(=O)(=O)O [compound 2, sodium(2S,3S)-4-hydroxy-2-((R)-2-hydroxy-1-(((1R,2S,3R,4R,5R)-3-hydroxy-4-(sulfonatoamino)-6,8-dioxabicyclo[3.2.1]octan-2-yl)oxy)ethoxy)-3-(((2R,3R,4R,5S,6R)-4-hydroxy-5-methoxy-3-(sulfonatoamino)-6-((sulfonatooxy)methyl)tetrahydro-2H-pyran-2-yl)oxy)butanoate]	2.65 µM
CO[C@H]1[C@H](O)[C@@H](NS(=O)(=O)O)[C@@H](O[C@H]2[C@H](O)[C@@H](O)[C@H](O[C@H]3[C@H](O)[C@@H](NS(=O)(=O)O)[C@@H]4OC[C@H]3O4)O[C@@H]2C(=O)O)O[C@@H]1COS(=O)(=O)O [compound 1]	39.9 µM
